{"source": "patent US20220175701A1", "about": "“TREATMENT OF MAJOR DEPRESSIVE DISORDER AND SUICIDAL IDEATIONS THROUGH STIMULATION OF HIPPOCAMPAL NEUROGENESIS UTILIZING PLANT-BASED APPROACHES” (THERAPEUTIC SOLUTIONS INTERNATIONAL, INC., priority 2020, published 2022)", "key": {"[1]": {"conditions": "cited from earlier work"}, "[2]": {"system": "cancer patients", "assay": "Pterostilbene (nanostilbene) in cancer patients, NK cell activity and interferon gamma", "format": "in vivo, human", "conditions": "administered in the form of nanostilbene", "excerpt": "Additionally, pterostilbene has shown to inhibit inflammatory cytokines associated with ARDS."}, "[3]": {"system": "human umbilical vein VECs (HUVECs)", "conditions": "cited from earlier work"}, "[4]": {"system": "apoE(−/−) mice", "conditions": "PT injection; cited from earlier work"}, "[5]": {"system": "mice challenged with endotoxin (LPS 0111:B4) or live Escherichia coli", "conditions": "cited from earlier work; for concentrations of IL-la: controls 1187.0±278.64"}, "[6]": {"system": "lipopolysaccharide-induced inflammatory reactions", "conditions": "cited from earlier work"}, "[7]": {"system": "mice with experimental colitis", "conditions": "cited from earlier work"}, "[8]": {"system": "macrophage foam cells", "conditions": "cited from earlier work"}, "[9]": {"system": "lipopolysaccharide-activated macrophages", "conditions": "cited from earlier work"}, "[10]": {"system": "rats subjected to myocardial ischemia and reperfusion", "conditions": "EGCG 10 mg/kg intravenously then 10 mg/kg/h infusion; cited from earlier work"}, "[11]": {"system": "BALB/c mice exposed to random stress", "assay": "Endogenous neurogenesis in stressed mice, BRDU incorporation assessed by histology", "format": "in vivo", "conditions": "stressed BALB/c mice treated daily; FIG. 1", "method": "FIG. 1 is a bar graph showing the results of stressed mice that were treated with Fluoxetine or QuadraMune™ daily. Assessment of endogenous neurogenesis was performed by administering BRDU and assessment of incorporation by histology.\nBALB/c mice where exposed to random stress 4 times a day by spinning by the tail for 15 seconds. Controls where not stressed. Stressed mice where treated with Prozac or QuadraMune™ daily. Assessment of endogenous neurogenesis was performed by administering BRDU and assessment of incorporation by histology."}, "[12]": {"system": "primary peritoneal macrophages", "conditions": "cited from earlier work"}, "[13]": {"system": "BALB/c mice with LPS-induced ARDS", "conditions": "cited from earlier work"}, "[14]": {"system": "LPS-challenged macrophages", "conditions": "pre-incubated 6 h with SFN 0 to 50 μM, then LPS 24 h; cited from earlier work"}, "[15]": {"conditions": "sulforaphane 50 mg/kg, LPS 5 mg/kg"}}, "note": "Like-named read-outs stand apart in the source and are kept apart here.", "data": [{"compound": "Oc1ccc(C=Cc2cc(O)cc(O)c2)cc1", "note": "[resveratrol, reference compound]", "values": [{"measurement": "bioavailability", "setting": "[1]; animal studies", "result": 20, "unit": "%"}]}, {"compound": "trans-3,5-dimethoxy-4-hydroxystilbene [pterostilbene]", "values": [{"measurement": "NK cell activity", "setting": "[2]", "result": "increased"}, {"measurement": "interferon gamma production", "setting": "[2]", "result": "increased"}, {"measurement": "bioavailability", "setting": "[1]; rat, in vivo", "result": 80, "unit": "%"}, {"measurement": "oxLDL-induced cell shrinkage, chromatin condensation, nuclear fragmentation and cell apoptosis", "setting": "[3]; HUVECs, oxLDL 200 μg/ml", "result": "protected against such injuries"}, {"measurement": "expression of lectin-like oxLDL receptor-1 (LOX-1)", "setting": "[3]; in vitro and in vivo", "result": "inhibited"}, {"measurement": "number of TUNEL-positive cells in the endothelium of atherosclerotic plaque", "setting": "[4]", "result": "strongly decreased"}]}, {"compound": "CC1=CC(=O)C(C(C)C)=CC1=O", "note": "[thymoquinone]", "values": [{"measurement": "concentrations of IL-la", "setting": "[5]; 0.75 mg/kg thymoquinone dose", "result": "310.8 ± 70.93", "unit": "pg/mL"}, {"measurement": "IL-10 levels", "setting": "[5]; 0.75 mg/kg thymoquinone, controls 5505.2±333.96", "result": "2885.0 ± 553.98", "unit": "pg/mL"}, {"measurement": "concentrations of IL-la", "setting": "[5]; 1 mg/kg group", "result": "428.3 ± 71.32", "unit": "pg/mL"}, {"measurement": "levels of TNF-α and IL-2", "setting": "[5]; P values=0.1817 and 0.0851", "result": "relatively lower levels"}, {"measurement": "renal and hepatic biomarker profiles", "setting": "[5]; mouse, in vivo", "result": "improved"}, {"measurement": "reduced mortality", "setting": "[5]; thymoquinone before endotoxin or E. coli sepsis in mice", "result": "80-90%"}, {"measurement": "concentration of nitric oxide", "setting": "[6]", "result": "reduced significantly"}]}, {"compound": "O=C(O[C@@H]1Cc2c(O)cc(O)cc2O[C@@H]1c1cc(O)c(O)c(O)c1)c1cc(O)c(O)c(O)c1", "note": "[EGCG, Epigallocatechin Gallate]", "values": [{"measurement": "disease activity index (DAI) and spleen index (SI)", "setting": "[7]; 50 and 100 mg/kg/day EGCG groups vs MD group", "result": "decreased"}, {"measurement": "HIF-1α and STATS protein expression in the colon", "setting": "[7]; mouse, in vivo", "result": "decreasing"}, {"measurement": "plasma levels of IL-10 and TGF-β1", "setting": "[7]; mouse, in vivo", "result": "increasing"}, {"measurement": "release of IL-6 and IL-17", "setting": "[7]; mouse, in vivo", "result": "reduce"}, {"measurement": "TNF-α-induced nuclear factor-κB (NF-κB) activity", "setting": "[8]", "result": "inhibition"}, {"measurement": "TNF-α-induced downregulation of ABCA1 and decrease in cholesterol efflux to apoA 1", "setting": "[8]; pretreatment with EGCG", "result": "attenuated"}, {"measurement": "iNOS activity in soluble extracts", "setting": "[9]; EGCG 5 and 10 microM for 6-24 hr, vs macrophages without EGCG", "result": "significantly lower"}, {"measurement": "NO production", "setting": "[9]; cells cotreated with EGCG and LPS", "result": "Inhibition"}, {"measurement": "activation of nuclear factor-kappaB", "setting": "[9]; electrophoretic mobility shift assay", "result": "blocked"}, {"measurement": "myocardial damage and myeloperoxidase activity", "setting": "[10]", "result": "reduced"}, {"measurement": "plasma IL-6 and creatine phosphokinase levels", "setting": "[10]", "result": "decreased"}]}, {"compound": "CNCCC(Oc1ccc(C(F)(F)F)cc1)c1ccccc1", "note": "(stereo not drawn) [Prozac, Fluoxetine]", "values": [{"measurement": "endogenous neurogenesis (BRDU incorporation by histology)", "setting": "[11]", "result": "Augmented neurogenesis"}]}, {"compound": "C[S+]([O-])CCCCN=C=S", "note": "(stereo not drawn) [sulforaphane, 1-isothiocyanato-4-(methylsulfinyl)-butane]", "values": [{"measurement": "HO-1 expression", "setting": "[12]; LPS-stimulated Nrf2 (+/+) primary peritoneal macrophages", "result": "significantly augmented"}, {"measurement": "anti-inflammatory effect", "setting": "[12]; Nrf2 (−/−) primary peritoneal macrophages", "result": "attenuated"}, {"measurement": "LPS-stimulated mRNA expression, protein expression and production of TNF-alpha, IL-1beta, COX-2 and iNOS", "setting": "[12]; pretreatment, Nrf2 (+/+) primary peritoneal macrophages", "result": "potently inhibited"}, {"measurement": "serum levels of interleukin-6 (IL-6) and tumor necrosis factor-α (TNF-α)", "setting": "[13]; ELISA, sulforaphane 50 mg/kg", "result": "significantly decreased"}, {"measurement": "Nrf2/antioxidant response element (ARE) pathway", "setting": "[13]; pre-treatment", "result": "activated"}, {"measurement": "lactate dehydrogenase (LDH) activity", "setting": "[13]; [15]", "result": "significantly decreased"}, {"measurement": "wet-to-dry ratio of the lungs", "setting": "[13]; [15]", "result": "significantly decreased"}, {"measurement": "nuclear factor-κB protein expression", "setting": "[13]; sulforaphane 50 mg/kg", "result": "significantly decreased"}, {"measurement": "prostaglandin E2 (PGE2) production, COX-2 and MMP-9 protein expression, iNOS activity", "setting": "[13]; sulforaphane 50 mg/kg", "result": "significantly inhibited"}, {"measurement": "expression of NO and cytokines", "setting": "[14]", "result": "able to prevent"}]}]}
